pIC50: −log10 of the molar value.
Target: T1, human GPR17 receptor (Homo sapiens, UniProt Q13304)
T1 construct: host or cells: HEK-293
Assay: Calcium mobilization functional assay (Fluo-8, FLIPR TETRA) in HEK-293 hGPR17 (Gα-q assay)
Type: cell-based
Conditions: antagonism of MDL29,951 (~EC80) induced Ca2+ signal; cell line (HEK-293 hGPR17 or HEK-293 Suchi5 hGPR17) not given
Method in brief: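 Fluo-8-loaded HEK-293 hGPR17 cells (60 min dye loading, room temperature) were preincubated with compound for twenty minutes, then challenged with agonist MDL29,951 at ~EC80, 500 nM. Intracellular calcium release via Gα-q was recorded as FLIPR fluorescence for a further 2 minutes; compounds tested in duplicate.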

T1 sequence (Q13304 whole entry): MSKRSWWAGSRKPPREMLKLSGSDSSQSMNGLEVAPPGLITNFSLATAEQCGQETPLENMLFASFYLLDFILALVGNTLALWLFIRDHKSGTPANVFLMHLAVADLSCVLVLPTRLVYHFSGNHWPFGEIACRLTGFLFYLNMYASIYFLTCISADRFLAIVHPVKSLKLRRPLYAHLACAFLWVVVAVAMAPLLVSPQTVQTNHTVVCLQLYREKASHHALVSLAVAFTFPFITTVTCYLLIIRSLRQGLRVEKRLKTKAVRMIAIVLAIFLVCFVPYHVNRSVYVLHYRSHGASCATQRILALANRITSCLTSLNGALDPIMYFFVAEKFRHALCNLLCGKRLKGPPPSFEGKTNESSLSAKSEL

Row | Compound | pIC50
1 | COc1ccc(-c2cc(S(=O)(=O)Nc3ccc(C#N)cc3F)c[nH]2)c(Cl)c1 [Cpd 300, 5-(2-chloro-4-methoxy-phenyl)-N-(4-cyano-2-fluoro-phenyl)-1H-pyrrole-3-sulfonamide] | 5.30 to 6.30
2 | O=S(=O)(Nc1cc(F)c(C(F)(F)F)cc1F)c1c[nH]c(-c2cscn2)c1 [Cpd 302, N-[2,5-difluoro-4-(trifluoromethyl)phenyl]-5-thiazol-4-yl-1H-pyrrole-3-sulfonamide] | > 6.30
3 | Cc1ccnc(-c2cc(S(=O)(=O)Nc3cc(F)c(C(F)(F)F)cc3F)c[nH]2)c1 [Cpd 303, N-[2,5-difluoro-4-(trifluoromethyl)phenyl]-5-(4-methyl-2-pyridyl)-1H-pyrrole-3-sulfonamide] | 5.30 to 6.30
4 | COc1ccc(-c2cc(S(=O)(=O)Nc3cc(F)c(C(F)(F)F)cc3F)c[nH]2)nc1 [Cpd 304, N-[2,5-difluoro-4-(trifluoromethyl)phenyl]-5-(5-methoxy-2-pyridyl)-1H-pyrrole-3-sulfonamide] | 5.30 to 6.30
5 | COc1ccnc(-c2cc(S(=O)(=O)Nc3cc(F)c(C(F)(F)F)cc3F)c[nH]2)c1 [Cpd 305, N-[2,5-difluoro-4-(trifluoromethyl)phenyl]-5-(4-methoxy-2-pyridyl)-1H-pyrrole-3-sulfonamide] | 5.30 to 6.30
6 | Cc1cccc(Cc2c[nH]cc2S(=O)(=O)Nc2ccc(C#N)cc2F)c1 [Cpd 306, N-(4-cyano-2-fluoro-phenyl)-4-(m-tolylmethyl)-1H-pyrrole-3-sulfonamide] | 5.30 to 6.30
7 | N#Cc1ccc(NS(=O)(=O)c2c[nH]cc2Cc2cccc(OC(F)(F)F)c2)c(F)c1 [Cpd 308, N-(4-cyano-2-fluoro-phenyl)-4-[[3-(trifluoromethoxy)phenyl]methyl]-1H-pyrrole-3-sulfonamide] | 5.30 to 6.30
8 | N#Cc1ccc(NS(=O)(=O)c2c[nH]cc2Cc2cccc(OC(F)F)c2)c(F)c1 [Cpd 309, N-(4-cyano-2-fluoro-phenyl)-4-[[3-(difluoromethoxy)phenyl]methyl]-1H-pyrrole-3-sulfonamide] | > 6.30
9 | N#Cc1ccc(NS(=O)(=O)c2c[nH]c(-c3ncccc3C(F)(F)F)c2)c(F)c1 [Cpd 310, N-(4-cyano-2-fluoro-phenyl)-5-[3-(trifluoromethyl)-2-pyridyl]-1H-pyrrole-3-sulfonamide] | 5.30 to 6.30
10 | N#Cc1ccc(NS(=O)(=O)c2c[nH]c(-c3ccccc3)c2)c(F)c1Cl [Cpd 312, N-(3-chloro-4-cyano-2-fluoro-phenyl)-5-phenyl-1H-pyrrole-3-sulfonamide] | 5.30 to 6.30
11 | O=S(=O)(Nc1ccc(C(F)(F)F)cc1F)c1c[nH]c(-c2ccccc2)c1 [Cpd 313, N-[2-fluoro-4-(trifluoromethyl)phenyl]-5-phenyl-1H-pyrrole-3-sulfonamide] | 5.30 to 6.30
12 | Cc1ccc(F)c(-c2cc(S(=O)(=O)Nc3cc(F)c(C(F)(F)F)cc3F)c[nH]2)c1 [Cpd 315, N-[2,5-difluoro-4-(trifluoromethyl)phenyl]-5-(2-fluoro-5-methyl-phenyl)-1H-pyrrole-3-sulfonamide] | 5.30 to 6.30
13 | N#Cc1ccc(NS(=O)(=O)c2c[nH]c(-c3ccccc3)c2)c(F)c1F [Cpd 317, N-(4-cyano-2,3-difluoro-phenyl)-5-phenyl-1H-pyrrole-3-sulfonamide] | 5.30 to 6.30
14 | N#Cc1cccc(-c2cc(S(=O)(=O)Nc3cc(F)c(C(F)(F)F)cc3F)c[nH]2)c1 [Cpd 318, 5-(3-cyanophenyl)-N-[2,5-difluoro-4-(trifluoromethyl)phenyl]-1H-pyrrole-3-sulfonamide] | > 6.30
15 | Cc1cccc(-c2cc(S(=O)(=O)Nc3cc(F)c(C(F)(F)F)cc3F)c[nH]2)c1F [Cpd 319, N-[2,5-difluoro-4-(trifluoromethyl)phenyl]-5-(2-fluoro-3-methyl-phenyl)-1H-pyrrole-3-sulfonamide] | 5.30 to 6.30
16 | N#Cc1ccc(NS(=O)(=O)c2c[nH]c(-c3ccccn3)c2)c(F)c1F [Cpd 322, N-(4-cyano-2,3-difluoro-phenyl)-5-(2-pyridyl)-1H-pyrrole-3-sulfonamide] | 5.30 to 6.30
17 | COc1cccc(-c2cc(S(=O)(=O)Nc3cc(F)c(C(F)(F)F)cc3F)c[nH]2)c1 [Cpd 323, N-[2,5-difluoro-4-(trifluoromethyl)phenyl]-5-(3-methoxyphenyl)-1H-pyrrole-3-sulfonamide] | 5.30 to 6.30
18 | COc1ccc(-c2cc(S(=O)(=O)Nc3cc(F)c(C(F)(F)F)cc3F)c[nH]2)c(F)c1 [Cpd 324, N-[2,5-difluoro-4-(trifluoromethyl)phenyl]-5-(2-fluoro-4-methoxy-phenyl)-1H-pyrrole-3-sulfonamide] | 4.30 to 5.30
19 | O=S(=O)(Nc1cc(F)c(C(F)(F)F)cc1F)c1c[nH]c(-c2cccc(Cl)c2F)c1 [Cpd 327, 5-(3-chloro-2-fluoro-phenyl)-N-[2,5-difluoro-4-(trifluoromethyl)phenyl]-1H-pyrrole-3-sulfonamide] | 5.30 to 6.30
20 | O=S(=O)(Nc1c(F)cc(C(F)(F)F)cc1F)c1c[nH]c(-c2ccccc2)c1 [Cpd 328, N-[2,6-difluoro-4-(trifluoromethyl)phenyl]-5-phenyl-1H-pyrrole-3-sulfonamide] | 5.30 to 6.30
21 | Cc1ccc(-c2cc(S(=O)(=O)Nc3ccc(C#N)cc3F)c[nH]2)c(C)c1 [Cpd 329, N-(4-cyano-2-fluoro-phenyl)-5-(2,4-dimethylphenyl)-1H-pyrrole-3-sulfonamide] | 5.30 to 6.30
22 | N#Cc1cc(F)c(NS(=O)(=O)c2c[nH]c(-c3ccccc3)c2)cc1Cl [Cpd 333, N-(5-chloro-4-cyano-2-fluoro-phenyl)-5-phenyl-1H-pyrrole-3-sulfonamide] | > 6.30
23 | O=S(=O)(Nc1ccc(C(F)(F)F)c(F)c1F)c1c[nH]c(-c2ccccc2)c1 [Cpd 334, N-[2,3-difluoro-4-(trifluoromethyl)phenyl]-5-phenyl-1H-pyrrole-3-sulfonamide] | 5.30 to 6.30
24 | O=S(=O)(Nc1ccc(C(F)(F)F)c(Cl)c1F)c1c[nH]c(-c2ccccn2)c1 [Cpd 335, N-[3-chloro-2-fluoro-4-(trifluoromethyl)phenyl]-5-(2-pyridyl)-1H-pyrrole-3-sulfonamide] | 4.30 to 5.30
25 | Cc1cc(NS(=O)(=O)c2c[nH]c(-c3ccccn3)c2)c(F)cc1C(F)(F)F [Cpd 336, N-[2-fluoro-5-methyl-4-(trifluoromethyl)phenyl]-5-(2-pyridyl)-1H-pyrrole-3-sulfonamide] | 5.30 to 6.30
26 | Cc1cccc(-c2cc(S(=O)(=O)Nc3cc(F)c(C(F)(F)F)cc3F)c[nH]2)c1 [Cpd 337, N-[2,5-difluoro-4-(trifluoromethyl)phenyl]-5-(m-tolyl)-1H-pyrrole-3-sulfonamide] | 5.30 to 6.30
27 | Cc1cc(NS(=O)(=O)c2c[nH]c(-c3ccccc3)c2)c(F)cc1C(F)(F)F [Cpd 338, N-[2-fluoro-5-methyl-4-(trifluoromethyl)phenyl]-5-phenyl-1H-pyrrole-3-sulfonamide] | 5.30 to 6.30

The remaining lines, values ahead:

Row | pIC50 | Compound
28 | 5.30 to 6.30 | O=S(=O)(Nc1cc(F)c(C(F)(F)F)cc1F)c1c[nH]c(-c2cccc(F)c2F)c1 [Cpd 301, 5-(2,3-difluorophenyl)-N-[2,5-difluoro-4-(trifluoromethyl)phenyl]-1H-pyrrole-3-sulfonamide]
29 | 5.30 to 6.30 | N#Cc1ccc(NS(=O)(=O)c2c[nH]cc2Cc2cccc(C(F)(F)F)c2)c(F)c1 [Cpd 307, N-(4-cyano-2-fluoro-phenyl)-4-[[3-(trifluoromethyl)phenyl]methyl]-1H-pyrrole-3-sulfonamide]
30 | 5.30 to 6.30 | O=S(=O)(Nc1cc(F)c(OC2CC2)cc1F)c1c[nH]c(-c2ccccn2)c1 [Cpd 311, N-[4-(cyclopropoxy)-2,5-difluoro-phenyl]-5-(2-pyridyl)-1H-pyrrole-3-sulfonamide]
31 | 5.30 to 6.30 | COc1ccc(F)cc1-c1cc(S(=O)(=O)Nc2ccc(C#N)cc2F)c[nH]1 [Cpd 314, N-(4-cyano-2-fluoro-phenyl)-5-(5-fluoro-2-methoxy-phenyl)-1H-pyrrole-3-sulfonamide]
32 | 5.30 to 6.30 | N#Cc1ccc(NS(=O)(=O)c2c[nH]c(-c3cc(F)cc(Cl)c3)c2)c(F)c1 [Cpd 316, 5-(3-chloro-5-fluoro-phenyl)-N-(4-cyano-2-fluoro-phenyl)-1H-pyrrole-3-sulfonamide]
33 | 5.30 to 6.30 | O=S(=O)(Nc1cc(F)c(C(F)(F)F)cc1F)c1c[nH]c(-c2cc(Cl)ccc2F)c1 [Cpd 320, 5-(5-chloro-2-fluoro-phenyl)-N-[2,5-difluoro-4-(trifluoromethyl)phenyl]-1H-pyrrole-3-sulfonamide]
34 | 5.30 to 6.30 | Cc1cccc(F)c1-c1cc(S(=O)(=O)Nc2cc(F)c(C(F)(F)F)cc2F)c[nH]1 [Cpd 321, N-[2,5-difluoro-4-(trifluoromethyl)phenyl]-5-(2-fluoro-6-methyl-phenyl)-1H-pyrrole-3-sulfonamide]
35 | 5.30 to 6.30 | COc1cccc(-c2cc(S(=O)(=O)Nc3cc(F)c(C(F)(F)F)cc3F)c[nH]2)c1F [Cpd 325, N-[2,5-difluoro-4-(trifluoromethyl)phenyl]-5-(2-fluoro-3-methoxy-phenyl)-1H-pyrrole-3-sulfonamide]
36 | > 6.30 | Cc1cc(NS(=O)(=O)c2c[nH]c(-c3ccccc3)c2)c(F)cc1C#N [Cpd 326, N-(4-cyano-2-fluoro-5-methyl-phenyl)-5-phenyl-1H-pyrrole-3-sulfonamide]
37 | 4.30 to 5.30 | N#Cc1ccc(-c2cc(S(=O)(=O)Nc3cc(F)c(C(F)(F)F)cc3F)c[nH]2)cc1 [Cpd 330, 5-(4-cyanophenyl)-N-[2,5-difluoro-4-(trifluoromethyl)phenyl]-1H-pyrrole-3-sulfonamide]
38 | > 6.30 | Cc1ccc(C)c(-c2cc(S(=O)(=O)Nc3ccc(C#N)cc3F)c[nH]2)c1 [Cpd 331, N-(4-cyano-2-fluoro-phenyl)-5-(2,5-dimethylphenyl)-1H-pyrrole-3-sulfonamide]
39 | 5.30 to 6.30 | O=S(=O)(Nc1ccc(C(F)(F)F)c(F)c1F)c1c[nH]c(-c2ccccn2)c1 [Cpd 332, N-[2,3-difluoro-4-(trifluoromethyl)phenyl]-5-(2-pyridyl)-1H-pyrrole-3-sulfonamide]
40 | > 6.30 | O=S(=O)(Nc1cc(F)c(C(F)(F)F)cc1F)c1c[nH]c(-c2nccs2)c1 [Cpd 339, N-[2,5-difluoro-4-(trifluoromethyl)phenyl]-5-thiazol-2-yl-1H-pyrrole-3-sulfonamide]
